Experimental data: US11834430B2, “Compounds useful as inhibitors of isoprenylcysteine carboxyl methyltransferase” (AGENCY FOR SCIENCE, TECHNOLOGY AND RESEARCH, priority 2017, dated 2023)

Target: human ICMT (Homo sapiens (Human), UniProt O60725)
Assay: ICMT biochemical assay (Methyltransferase-Glo)
Details: ICMT membrane extract from Sf-9 cells; 30 min preincubation, 90 min reaction
Procedure: Recombinant human ICMT was prepared by infection of Sf9 cells with a recombinant baculovirus containing the entire open reading frame of the human ICMT cDNA.
Cells producing ICMT were harvested 66 hours post-infection. The cells are homogenized and resuspended in 5 mM NaHPO4 (pH 7.0), and a cocktail of protease inhibitors. The membrane was pelleted, after removal of nuclei and debris, at 100,000×g for 1 hour. Membranes were resuspended in 5 mM NaHPO4 (pH 7.0) with 5 mM EDTA at 10-12 mg/ml. The suspension was stored at −80° C. in multiple aliquots.
An ICMT enzymatic assay was developed using Promega's Methyltransferase-GloTMreagents. In the assay, ICMT catalyzes the methylation of the N-Acetyl-S-farnesyl-L-cysteine by transferring a methyl group from SAM to the farnesylated cysteine and further converts the SAM to SAH. The methyltransferase activity is measured based on the amount of SAH produced from the reaction through the use of coupling enzymes that convert the SAH to ATP. The MTase-Glo detection solution then catalyzes the formation of light from ATP.
A final concentration of 2.0 μM and 20 μM of SAM and peptide were added and further incubated for 90 minutes at room temperature before adding the MTase Glo and detection reagent. Reaction signals were detected using microplate readers on luminescent mode (Satire Tecan). The IC50 was determined by nonlinear regression, using GraphPad Prism version, 5.03.

human ICMT, sequence (O60725 whole entry): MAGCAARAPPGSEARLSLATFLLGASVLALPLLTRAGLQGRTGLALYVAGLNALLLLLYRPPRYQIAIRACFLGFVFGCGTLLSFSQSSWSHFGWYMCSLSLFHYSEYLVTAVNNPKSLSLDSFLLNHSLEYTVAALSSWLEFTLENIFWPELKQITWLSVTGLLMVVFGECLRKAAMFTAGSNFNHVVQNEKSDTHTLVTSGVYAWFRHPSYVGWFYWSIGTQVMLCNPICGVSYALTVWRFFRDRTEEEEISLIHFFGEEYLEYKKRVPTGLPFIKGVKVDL

Row | IC50 [nM] | SMILES
1 | 61 | Cc1nccn1-c1cccc(OC(C)COc2ccc(C#N)cc2F)c1 (stereo not drawn) [Compound 23, 3-fluoro-4-(2-(3-(2-methyl-1H-imidazol-1-yl)phenoxy)propoxy)benzonitrile]
2 | 1 | Cc1nccn1-c1cc(OCCOc2ccc(C#N)cc2Cl)ccn1 [Compound 24, 3-chloro-4-(2-((2-(2-methyl-1H-imidazol-1-yl)pyridin-4-yl)oxy)ethoxy)benzonitrile]
3 | 23 | Cc1nccn1-c1cccc(OCC(C)Oc2ccc(C#N)cc2F)c1 (stereo not drawn) [Compound 25, 3-fluoro-4-((1-(3-(2-methyl-1H-imidazol-1-yl)phenoxy)propan-2-yl)oxy)benzonitrile]
4 | 69 | C#Cc1ccc(OCCOc2cccc(-n3ccnc3C)c2)cc1 [Compound 26, 1-(3-(2-(4-ethynylphenoxy)ethoxy)phenyl)-2-methyl-1H-imidazole]
5 | 290 | Cc1cc(F)ccc1OCCOc1cccc(-c2ccnn2C)c1 [Compound 27, 5-(3-(2-(4-fluoro-2-methylphenoxy)ethoxy)phenyl)-1-methyl-1H-pyrazole]
6 | 1.6 | CC(COc1cccc(-n2ccnc2C2CC2)c1)Oc1ccc(C#N)cc1F (stereo not drawn) [Compound 28, 4-((1-(3-(2-cyclopropyl-1H-imidazol-1-yl)phenoxy)propan-2-yl)oxy)-3-fluorobenzonitrile]
7 | 0.08 | COc1cc(C#N)ccc1OC(C)COc1cccc(-n2ccnc2C)c1 (stereo not drawn) [Compound 29, 3-methoxy-4-((1-(3-(2-methyl-1H-imidazol-1-yl)phenoxy)propan-2-yl)oxy)benzonitrile]
8 | 1.6 | Cc1cc(C#N)ccc1OC(C)COc1cccc(-c2ccnn2C)c1 (stereo not drawn) [Compound 30, 3-methyl-4-((1-(3-(1-methyl-1H-pyrazol-5-yl)phenoxy)propan-2-yl)oxy)benzonitrile]
9 | 1.2 | COc1cc(C#N)ccc1OC(C)COc1cccc(-c2ccnn2C)c1 (stereo not drawn) [Compound 31, 3-methoxy-4-((1-(3-(1-methyl-1H-pyrazol-5-yl)phenoxy)propan-2-yl)oxy)benzonitrile]
10 | 200 | Cc1nccn1-c1cccc(O[C@H](C)COc2ccc(C#N)cc2Cl)c1 [Compound 32, (R)-3-chloro-4-(2-(3-(2-methyl-1H-imidazol-1-yl)phenoxy)propoxy)benzonitrile]
11 | 1.5 | Cc1nccn1-c1cccc(O[C@@H](C)COc2ccc(C#N)cc2Cl)c1 [Compound 33, (S)-3-chloro-4-(2-(3-(2-methyl-1H-imidazol-1-yl)phenoxy)propoxy)benzonitrile]
12 | 1470 | Cc1nccn1-c1cccc(O[C@H](C)COc2ccc(C#N)cc2F)c1 [Compound 34, (R)-3-fluoro-4-(2-(3-(2-methyl-1H-imidazol-1-yl)phenoxy)propoxy)benzonitrile]
13 | 3.6 | Cc1nccn1-c1cccc(O[C@@H](C)COc2ccc(C#N)cc2F)c1 [Compound 35, (S)-3-fluoro-4-(2-(3-(2-methyl-1H-imidazol-1-yl)phenoxy)propoxy)benzonitrile]
14 | 140 | Cc1nccn1-c1cccc(OCCOc2ccc(C#N)cc2OC(F)(F)F)c1 [Compound 36, 4-(2-(3-(2-methyl-1H-imidazol-1-yl)phenoxy)ethoxy)-3-(trifluoromethoxy)benzonitrile]
15 | 310 | N#Cc1ccc(OCCOc2cccc(-n3cnnc3)c2)c(F)c1 [Compound 38, 4-(2-(3-(4H-1,2,4-triazol-4-yl)phenoxy)ethoxy)-3-fluorobenzonitrile]
16 | 4.7 | Cc1cc(C#N)ccc1O[C@H](C)COc1cccc(-c2ccnn2C)c1 [Compound 39, (R)-3-methyl-4-((1-(3-(1-methyl-1H-pyrazol-5-yl)phenoxy)propan-2-yl)oxy)benzonitrile]
17 | 9.5 | Cc1cc(C#N)ccc1O[C@@H](C)COc1cccc(-c2ccnn2C)c1 [Compound 40, (S)-3-methyl-4-((1-(3-(1-methyl-1H-pyrazol-5-yl)phenoxy)propan-2-yl)oxy)benzonitrile]
18 | 12 | C[C@@H](COc1cccc(-n2ccnc2C2CC2)c1)Oc1ccc(C#N)cc1F [Compound 42, (S)-4-((1-(3-(2-cyclopropyl-1H-imidazol-1-yl)phenoxy)propan-2-yl)oxy)-3-fluorobenzonitrile]
